Experimental data: patent publication US5952294A, “Peptidyl prodrugs and methods of making and using the same” (University of Pittsburgh of the Commonwealth System of …, priority 1996, dated 1999)
Converted amounts (≈) assume the structure as drawn.

Columns and labels:
[1] = Release of ara-C from prodrugs (cyclization) in CD3OD or D2O monitored by 1H NMR; format: physicochemical; settings: for Half-life (hours) for release of ara-C, t1/2: 22° C., 1H NMR
Experimental: The stability of the ara-C prodrug compounds 10, 15, 17 and 19, prepared according to Example 1, in various reaction media was investigated by NMR and HPLC analyses. The ^1 H NMR studies of the cyclization process were performed on a 4 mg/ml solution of prodrug in CD3 OD or D2 O. Sodium acetate (2 mg) or acetic acid (2 microliters) were added neat to the samples to control the pH. The spectra were collected in appropriate time intervals, and the ratio of prodrug to drug was determined by comparing the integration of the H-C (6) on the nucleoside of prodrug and ara-C.

[2] = Release of ara-C from prodrugs in human plasma by HPLC; format: in vitro ADME; settings: pH 7.4, 22° C.
Experimental: (§1) HPLC studies of the cyclization process in plasma were performed on a 4 mg/ml solution of prodrug in plasma. At appropriate time intervals, 25 microliter aliquots were removed and 0.20 ml of CH3 CN was added to precipitate the protein. After centrifugation, about 25 microliters of clear supernatant liquid was injected directly into the HPLC port. The HPLC analysis was performed with a C-18 reverse phase column using an H2 O/CH3 CN (1:1) eluent and the UV detector was set at 250 nm. The relative concentration of ara-C was determined by the relative peak areas. […] The disappearance of characteristic signals of the prodrugs was accompanied by the appearance of signals of ara-C and the corresponding heterocycles. […] FIGS. 6 through 8 plot the percent concentration of prodrug over time. Table 1 below provides the half life (in hours) for ara-C release of prodrugs 10, 15, 17 and 19 as determined by NMR and HPLC analysis.

[3] = Stability in bovine or human plasma by HPLC (plasma not distinguished); format: in vitro ADME; settings: for Cyclization / stability in plasma: bovine or human plasma, HPLC
Experimental: as §1
The stability of these compounds in bovine and human plasma was determined by HPLC analysis (Entry 5 and 6 in Table 1).

[4] = Release of ara-C from prodrugs in bovine plasma by HPLC; format: in vitro ADME; settings: pH 7.4, 22° C.
Experimental: as §1

[5] = test system: human promyelocytic leukemia HL-60 cells; assay: Induction of apoptosis (morphology) in HL-60 cells; format: cell-based; settings: for Maximum percentage of cells exhibiting frank apoptotic morphology: FIG. 9; for Appearance of apoptotic bodies / increase in apoptosis: 24 hours exposure, about 10 micromols
Experimental: (§2) The ability of the prodrug compounds to kill human tumor cells was tested, specifically their ability to induce apoptosis in human promyelocytic leukemia HL-60 cells. These cells are known to undergo apoptosis following exposure to ara-C. The ability of the prodrugs to cause internucleosomal DNA fragmentation, a characteristic feature of apoptosis in HL-60 cells, was also investigated. The HL-60 were cultured in essentially the same manner as the L-1210 cells, only using Iscoue's modification for the medium. Internucleosomal DNA fragmentation was determined as follows. Following the indicated drug treatments, aliquots of cells (1×10^6) were pelleted by centrifugation at 100×g for 5 minutes, washed with PBS, solubilized with 20 microliters of lysis buffer (10 mM EDTA, 0.5% sarkosyl, 1 mg/ml proteinase K, 50 mM Tris, pH8), and incubated at 50° C. for 1 hour. After incubation, RNaseA (Boehringer Mannheim) was added to a final concentration of 0.33 mg/ml and incubated for an additional hour at 37° C. The lysate was loaded into dry wells of a 1.8% agarose gel, the wells were sealed with low melting point agarose, and the DNA was electrophoresed using Tris-phosphate-EDTA (TPE) running buffer. After electrophoresis, the DNA was stained by immersion of the gel in water containing 1 μg/ml ethidium bromide (Sigma). The DNA was visualized and photographed using an ultraviolet transilluminator.
The formation of apoptotic bodies occurred within a maximal halftime of 4 hours and there was no noticeable difference in the kinetics of apoptosis among ara-C, 10, 15 and 17.

[6] = test system: Murine L-1210 leukemia cells; assay: L-1210 cell line growth inhibition assay; format: cell-based
Experimental: The antiproliferation activity of compounds 10, 15, 17 and 19, as compared to ara-C, was tested in an L-1210 cell line growth inhibition assay using various concentrations and continuous exposure. Cell numbers were determined 72 hours after initial drug exposure. Murine L-1210 leukemia cells were grown in suspension using Dulbecco's medium (Gibco/BRL) supplemented with 10% fetal bovine serum (FBS, HyClone), […] of L-glutamine, 100 U/ml penicillin G sodium, and 100 μg/m1 streptomycin (Gibco/BRL). Cells were grown in a humidified incubator as 37° C. under an atmosphere of 95% air and 5% CO2. Cells were routinely passaged at a 1:5 ratio and found to be free of mycoplasma contamination.

[7] = test system: human promyelocytic leukemia HL-60 cells; assay: Internucleosomal DNA fragmentation in HL-60 cells; format: cell-based
Experimental: as §2, with “These cells are known to undergo apoptosis following exposure to ara-C.” left out
DNA fragmentation of the compounds was tested.

[8] = total; cited from earlier work
[9] = continuous exposure, cell numbers 72 hours after initial drug exposure
[10] = Mus musculus, L1210, continuous exposure, cell numbers 72 hours after initial drug exposure

Compound	Half-life (hours) for release of ara-C, t1/2 ([1]; CD3OD) [h]	Half-life (hours) for release of ara-C, t1/2 ([1]; CD3OD, HOAc) [h]	Half-life (hours) for release of ara-C, t1/2 ([1]; CD3OD, NaOAc) [h]	Half-life (hours) for release of ara-C, t1/2 [2] [h]	Cyclization / stability in plasma [3]	Half-life (hours) for release of ara-C, t1/2 [4] [h]	L-1210 Cell Growth Inhibition IC50 [6, 9] [ng/mL]	L-1210 Cell Growth Inhibition IC90 [6, 9] [ng/mL]	Maximal halftime of formation of apoptotic bodies [5] [h]	Maximum percentage of cells exhibiting frank apoptotic morphology [5]	IC50 and IC90 values compared with ara-C control ([6]; L-1210 cells)	Appearance of apoptotic bodies / increase in apoptosis [5]	further results
CC(C)(NC(=O)[C@@H](N)Cc1ccc(OCc2ccccc2)cc1)C(=O)Nc1ccn([C@@H]2O[C@H](CO)[C@@H](O)[C@@H]2O)c(=O)n1.Cl [Compound 10, Tyr(OBn)-Aib-ara-C hydrochloride]	42	31	0.3	0.3	cyclize readily	0.4	1.3	5	≤ 4	approximately 25%	essentially identical to the ara-C control	–	Faster cyclization upon change from CD3OD to D2O ([1]; D2O versus CD3OD): about 50%; Half-life (hours) for release of ara-C, t1/2 ([1]; D2O): 21 h
Nc1ccn([C@@H]2O[C@H](CO)[C@@H](O)[C@@H]2O)c(=O)n1 [ara-C, 1-(β-D-arabinofuranosyl) cytosine, reference compound]	–	–	–	–	–	–	–	–	≤ 4	approximately 25%	–	obvious apoptotic bodies	Internucleosomal DNA fragmentation ([7]; about 10 micromols, 4 hours): displayed internucleosomal 180-200 base pair DNA fragments; Fraction of dose excreted in the urine within 24 hours [8]: About 80%; IC50 [6, 10]: 1.5 ng/mL (≈ 0.00617 µM); IC90 [6, 10]: 4.3 ng/mL (≈ 0.0177 µM)
Aib-Aib-ara-C hydrochloride [Compound 15]	> 1000	> 1000	1.3	0.4	cyclize readily	0.5	1.1	3.4	≤ 4	approximately 25%	essentially identical to the ara-C control	–	–

Further lines, with some results ahead:

Half-life (hours) for release of ara-C, t1/2 ([1]; CD3OD) [h]	Half-life (hours) for release of ara-C, t1/2 ([1]; CD3OD, HOAc) [h]	Half-life (hours) for release of ara-C, t1/2 ([1]; CD3OD, NaOAc) [h]	Half-life (hours) for release of ara-C, t1/2 [2] [h]	Cyclization / stability in plasma [3]	Half-life (hours) for release of ara-C, t1/2 [4] [h]	L-1210 Cell Growth Inhibition IC50 [6, 9] [ng/mL]	L-1210 Cell Growth Inhibition IC90 [6, 9] [ng/mL]	Compound	Maximal halftime of formation of apoptotic bodies [5] [h]	Maximum percentage of cells exhibiting frank apoptotic morphology [5]	IC50 and IC90 values compared with ara-C control ([6]; L-1210 cells)	Appearance of apoptotic bodies / increase in apoptosis [5]	further results
> 2000	> 2000	800	> 10	good stability	> 10	600	1400	CC(C)(N)C(=O)NNC(=O)Nc1ccn([C@@H]2O[C@H](CO)[C@@H](O)[C@@H]2O)c(=O)n1.Cl [Compound 19, Aib-2-Azagly-ara-C hydrochloride]	–	–	–	no obvious increase in apoptosis	DNA fragmentation after preincubation ([7]; compound preincubated in serum-free medium for 15 days): DNA ladders similar ara-C; Cyclization to release the drug ([1]; in the presence of NaOAc): extremely slow; Cyclization to release the drug ([1]; neutral or acid conditions): did not undergo cyclization; ara-C detected in plasma after 48 hours ([3]; plasma, after 48 hours): No ara-C was detected; Apoptotic activity after preincubation ([5]; compound preincubated in serum-free medium for 15 days, FIG. 10): slightly less than ara-C; Times less toxic than ara-C in L-1210 test ([6]; L-1210 cells, versus ara-C): about 500 times
360	860	1.4	0.3	cyclize readily	0.4	1.0	3.4	Glc-Aib-ara-C [Compound 17]	≤ 4	approximately 25%	essentially identical to the ara-C control	–	–
